Measured values taken from patent US9012655B2, “Antimicrobial/adjuvant compounds and methods” (Denouamed, Inc., priority 2011, dated 2015).
Converted amounts (≈) assume the structure as drawn.

Experiments:
Experiment in all cases: MIC panel of challenge pathogens (CLSI)
Assay type in all cases: cell-based
[1] = system: Staphylococcus aureus NRS1 (ATCC700699); details: Staphylococcus aureus NRS1 (ATCC700699)
Summary of the method: (§1)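 Broth microdilution per CLSI guidelines. Final inoculum 2-8×10^5 CFU/ml, compounds serially two-fold diluted from 128 mg/L top concentration. Incubated in the dark at 30-37° C for 24-48 h, aerobic or anaerobic as appropriate. MIC read visually as 100% inhibition endpoint; MIC50 and MIC80 also reported.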

[2] = system: Enterococcus faecium ATCC700221; details: Enterococcus faecium ATCC700221
Summary of the method: as §1

[3] = system: Staphylococcus epidermidis NRS7; details: Staphylococcus epidermidis NRS7
Summary of the method: as §1

[4] = system: Staphylococcus aureus EUP MRSA002; details: EUPMRSA002, Staphylococcus aureus EUP MRSA002
Summary of the method: as §1

[5] = system: Staphylococcus aureus AUR58 7005; details: AUR587005, Staphylococcus aureus AUR58 7005
Summary of the method: as §1

[6] = system: Staphylococcus aureus AUR60 7005; details: AUR607005, Staphylococcus aureus AUR60 7005
Summary of the method: as §1

[7] = system: Enterococcus faecalis ATCC51299; details: Enterococcus faecalis ATCC51299
Summary of the method: as §1

[8] = system: Bacillus cereus NCTC6349; details: Bacillus cereus NCTC6349
Summary of the method: as §1

[9] = system: Staphylococcus aureus ATCC43300; details: Staphylococcus aureus ATCC43300
Summary of the method: as §1

[10] = system: Staphylococcus aureus EUP SAU040; details: EUPSAU040, Staphylococcus aureus EUP SAU040
Summary of the method: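 Broth microdilution per CLSI guidelines; final inoculum 2-8×10^5 CFU/ml in the appropriate broth. Compounds serially diluted two-fold from a top assay concentration of 128 mg/L. Plates incubated in the dark at 30-37° C for 24-48 hours, read visually; MIC taken as 100% inhibition endpoint.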

[11] = system: Enterococcus faecalis ATCC29212; details: Enterococcus faecalis ATCC29212
Summary of the method: as §1

[12] = system: Staphylococcus aureus NRS2 (ATCC700698); details: Staphylococcus aureus NRS2 (ATCC700698)
Summary of the method: as §1

[13] = system: Staphylococcus aureus AUR131 007035; details: AUR131007035, Staphylococcus aureus AUR131 007035
Summary of the method: as §1

[14] = system: Staphylococcus aureus NRS384; details: Staphylococcus aureus NRS384
Summary of the method: as §1

[15] = system: Staphylococcus aureus AUR59 7005; details: AUR597005, Staphylococcus aureus AUR59 7005
Summary of the method: as §1

[16] = system: Staphylococcus aureus NRS383; details: Staphylococcus aureus NRS383
Summary of the method: as §1

[17] = system: Staphylococcus aureus EUP MRSA004; details: EUPMRSA004, Staphylococcus aureus EUP MRSA004
Summary of the method: as §1

[18] = system: Staphylococcus aureus NRS382; details: Staphylococcus aureus NRS382
Summary of the method: as §1

[19] = system: Staphylococcus epidermidis NRS122; details: Staphylococcus epidermidis NRS122
Summary of the method: as §1

Cc1ccc(Cl)cc1-c1cc(-c2nnn[nH]2)sc1-c1cc(Cl)ccc1C [DNM0508, 5-(4,5-Bis(5-chloro-2-methylphenyl)thiophen-2-yl)-1H-tetrazole]
MIC ([1]; read-out: 100% inhibition): 1 mg/L (≈ 2.49 µM)
MIC50 ([1]; read-out: MIC50 (50%)): 0.5 mg/L (≈ 1.25 µM)
MIC80 ([1]; read-out: MIC80 (80%)): 1 mg/L (≈ 2.49 µM)
MIC ([2]; read-out: 100% inhibition): 1 mg/L (≈ 2.49 µM)
MIC50 ([2]; read-out: MIC50 (50%)): 1 mg/L (≈ 2.49 µM)
MIC80 ([2]; read-out: MIC80 (80%)): 1 mg/L (≈ 2.49 µM)
MIC ([3]; read-out: 100% inhibition): 1 mg/L (≈ 2.49 µM)
MIC50 ([3]; read-out: MIC50 (50%)): 0.5 mg/L (≈ 1.25 µM)
MIC80 ([3]; read-out: MIC80 (80%)): 0.5 mg/L (≈ 1.25 µM)
MIC ([4]; read-out: 100% inhibition): 1 mg/L (≈ 2.49 µM)
MIC50 ([4]; read-out: MIC50 (50%)): 0.5 mg/L (≈ 1.25 µM)
MIC80 ([4]; read-out: MIC80 (80%)): 1 mg/L (≈ 2.49 µM)
MIC ([5]; read-out: 100% inhibition): 1 mg/L (≈ 2.49 µM)
MIC50 ([5]; read-out: MIC50 (50%)): 1 mg/L (≈ 2.49 µM)
MIC80 ([5]; read-out: MIC80 (80%)): 1 mg/L (≈ 2.49 µM)
MIC ([6]; read-out: 100% inhibition): 1 mg/L (≈ 2.49 µM)
MIC50 ([6]; read-out: MIC50 (50%)): 1 mg/L (≈ 2.49 µM)
MIC80 ([6]; read-out: MIC80 (80%)): 1 mg/L (≈ 2.49 µM)
MIC ([7]; read-out: 100% inhibition): 2 mg/L (≈ 4.98 µM)
MIC50 ([7]; read-out: MIC50 (50%)): 2 mg/L (≈ 4.98 µM)
MIC80 ([7]; read-out: MIC80 (80%)): 2 mg/L (≈ 4.98 µM)
MIC ([8]; read-out: 100% inhibition): 0.5 mg/L (≈ 1.25 µM)
MIC50 ([8]; read-out: MIC50 (50%)): 0.5 mg/L (≈ 1.25 µM)
MIC80 ([8]; read-out: MIC80 (80%)): 0.5 mg/L (≈ 1.25 µM)
MIC ([9]; read-out: 100% inhibition): 1 mg/L (≈ 2.49 µM)
MIC50 ([9]; read-out: MIC50 (50%)): 1 mg/L (≈ 2.49 µM)
MIC80 ([9]; read-out: MIC80 (80%)): 1 mg/L (≈ 2.49 µM)
MIC ([10]; read-out: 100% inhibition): 1 mg/L (≈ 2.49 µM)
MIC50 ([10]; read-out: MIC50 (50%)): 1 mg/L (≈ 2.49 µM)
MIC80 ([10]; read-out: MIC80 (80%)): 1 mg/L (≈ 2.49 µM)
MIC ([11]; read-out: 100% inhibition): 2 mg/L (≈ 4.98 µM)
MIC50 ([11]; read-out: MIC50 (50%)): 2 mg/L (≈ 4.98 µM)
MIC80 ([11]; read-out: MIC80 (80%)): 2 mg/L (≈ 4.98 µM)
MIC ([12]; read-out: 100% inhibition): 1 mg/L (≈ 2.49 µM)
MIC50 ([12]; read-out: MIC50 (50%)): 0.5 mg/L (≈ 1.25 µM)
MIC80 ([12]; read-out: MIC80 (80%)): 1 mg/L (≈ 2.49 µM)
MIC ([13]; read-out: 100% inhibition): 1 mg/L (≈ 2.49 µM)
MIC50 ([13]; read-out: MIC50 (50%)): 1 mg/L (≈ 2.49 µM)
MIC80 ([13]; read-out: MIC80 (80%)): 1 mg/L (≈ 2.49 µM)
MIC ([14]; read-out: 100% inhibition): 1 mg/L (≈ 2.49 µM)
MIC50 ([14]; read-out: MIC50 (50%)): 1 mg/L (≈ 2.49 µM)
MIC80 ([14]; read-out: MIC80 (80%)): 1 mg/L (≈ 2.49 µM)
MIC ([15]; read-out: 100% inhibition): 1 mg/L (≈ 2.49 µM)
MIC50 ([15]; read-out: MIC50 (50%)): 1 mg/L (≈ 2.49 µM)
MIC80 ([15]; read-out: MIC80 (80%)): 1 mg/L (≈ 2.49 µM)
MIC ([16]; read-out: 100% inhibition): 1 mg/L (≈ 2.49 µM)
MIC50 ([16]; read-out: MIC50 (50%)): 1 mg/L (≈ 2.49 µM)
MIC80 ([16]; read-out: MIC80 (80%)): 1 mg/L (≈ 2.49 µM)
MIC ([17]; read-out: 100% inhibition): 1 mg/L (≈ 2.49 µM)
MIC50 ([17]; read-out: MIC50 (50%)): 1 mg/L (≈ 2.49 µM)
MIC80 ([17]; read-out: MIC80 (80%)): 1 mg/L (≈ 2.49 µM)
MIC ([18]; read-out: 100% inhibition): 1 mg/L (≈ 2.49 µM)
MIC50 ([18]; read-out: MIC50 (50%)): 1 mg/L (≈ 2.49 µM)
MIC80 ([18]; read-out: MIC80 (80%)): 1 mg/L (≈ 2.49 µM)
MIC ([19]; read-out: 100% inhibition): 8 mg/L (≈ 19.9 µM)
MIC50 ([19]; read-out: MIC50 (50%)): 4 mg/L (≈ 9.97 µM)
MIC80 ([19]; read-out: MIC80 (80%)): 8 mg/L (≈ 19.9 µM)
